# Laboratory results reported in a melting point compilation (Tetko et al.; mined from patent text by program, amines drawn as free bases though some values may be those of a salt).
row,Compound,melting point
1,C[C@H](NC(=O)c1ccc[nH]1)C(=O)NC(C=O)CC(=O)O (stereo partly drawn),96 to 100 °C
2,ClCc1cn2c(-c3ccccc3)cccc2n1,126 to 127 °C
3,CCCCCOC(=O)Cc1nc(-c2ccccc2)oc1-c1ccsc1,61 to 62 °C
4,NCC(=O)NC(Cc1cccnc1)c1ccccc1 (stereo not drawn),93.5 to 94.5 °C
5,O=C1C[C@@H](NC(=O)OCc2ccccc2)C(=O)N1,117 to 118 °C
6,CCOC(=O)NC(=O)C(C#N)=CNc1c(Cl)cc(Cl)cc1Cl,245 to 247 °C
7,CC1NC(=O)NN=C1c1ccc(OCC(=O)NN)c(Cl)c1 (stereo not drawn),252 to 254 °C
8,Cn1nc(OCc2ccccc2)cc1C=O,49.5 to 50.5 °C
9,O=Cc1ccc(Br)cc1C=O,97 to 100 °C
10,c1cc(-c2cnn3cc(-c4ccc(OCCN5CCCCC5)cc4)cnc23)cs1,141 to 143 °C
11,O=[N+]([O-])c1cc(Br)cc(F)c1O,62 °C
12,CCCCn1ccc(Cc2cnc(N[N+](=O)[O-])[nH]c2=O)cc1=O,198 to 201 °C
13,Cc1c(-c2ccc(OCc3ccccc3)cc2)n(Cc2ccc(OCCCCl)cc2)c2ccc(OCc3ccccc3)cc12,130 to 132 °C
14,CC(=O)Nc1ccc(SCC(OS(C)(=O)=O)C(C)(C)C)cc1 (stereo not drawn),123 to 124 °C
15,CCc1ccc(OC(CC)C(=O)OC2CC(O)C=C3C=CC(C)C(CCC4CC(O)CC(=O)O4)C32)cc1 (mixture of isomers),139 to 140 °C
16,FCc1ccc(-c2ccc(-c3cn([C@H]4CN5CCC4CC5)nn3)s2)cc1,199 °C
17,Cc1nc2c3c(ccn2c1C)C(=O)[C@](O)(Cc1ccccc1)[C@@H](c1ccccc1)N3,248 to 251 °C
18,Brc1ccc(CN2CCOCC2)cc1,68 to 71 °C
19,N[C@@H]1C(=C2OCc3ccccc32)[C@@H]2C[C@H]1C(=C1OCc3ccccc31)[C@H]2N,108 °C
20,CCCN(CC)C(C)CN1CCc2c(c(=O)oc3cc(OC)c(OC)cc23)C1 (stereo not drawn),93 to 96 °C
21,COC(=O)C(O)=CC(=O)N(Cc1ccc(F)cc1)Cc1ccc(F)cc1,118 to 120 °C
22,CCOCc1oc(-c2ccc(C(F)(F)F)cc2)cc1C(=O)OCC,103 to 105 °C
23,Cc1ccc(S(=O)(=O)OC[C@H]2COCCO2)cc1,53 to 54 °C

# Results, then the compound that gave them:
row,melting point,Compound
1,179 to 180 °C,Cc1ccc2c(c1)c1c(n2Cc2ccccc2)CCCC1=O
2,217 °C,O=C(O)Cc1c(C(=O)c2ccc3c(c2)CCO3)[nH]c2cc(Cl)ccc12
3,174 to 177 °C,CCc1cn(C2CC(OCc3ccccc3)C(CNC(=O)Cc3c(Cl)cccc3Cl)O2)c(=O)[nH]c1=O (stereo not drawn)
4,96 °C,Cc1cc(NC(=O)C(F)(c2ccccc2)c2nnn(CCCCCCCCCCCC(F)F)n2)c(C)c(C)c1O (stereo not drawn)
5,64 to 67 °C,COC(=O)C1CSc2ccc(Cl)cc2C1=O (stereo not drawn)
6,212 to 216 °C,O=C1CCC(=O)N1c1ccc(N2CCN(c3ccc(OCC(O)(Cn4cncn4)c4ccc(Cl)cc4Cl)cc3)CC2)cc1 (stereo not drawn)
7,214 °C,O=C(O)c1cn(C2CC2)c2c(F)c(N3CCC(n4nncc4C(=O)O)C3)c(F)cc2c1=O (stereo not drawn)
8,141 to 142 °C,Nc1nccc(-c2cccc(OCC(O)CN3CCN(c4ccc(Cl)cc4)CC3)c2)n1 (stereo not drawn)
9,238 to 240 °C,Cc1cc(=O)c2cc(NC(=O)C(=O)O)ccc2s1
10,168 to 170 °C,COc1ccc2[nH]cc(CCC(=O)Nc3ccccc3C(=O)O)c2c1
11,195 to 197 °C,Cc1c(NC(=O)c2ccc(-c3ccc4c(c3)CCCO4)cc2)ccc2cc(CN3CCCC3)cnc12
12,186 °C,CC1(C)NC(=O)c2ccccc2N1CCCN1CCC(C(=O)c2ccc(F)cc2)CC1
13,196 to 198 °C,O=C1CCC(N2Cc3c(OCc4ccc(CN5CCNCC5)cc4)cccc3C2=O)C(=O)N1 (stereo not drawn)
14,152 °C,O=C(O)C1=CS[C@@H]2[C@@H]([C@H](O)c3cn4c(n3)SCC4)C(=O)N12
15,217 to 219 °C,COc1ccc(C=CC(=O)C2C(=O)C=C(C)OC2=O)cc1O (stereo not drawn)
